The values below come from US10711036B2, “MALT1 inhibitors and uses thereof” (Cornell University, priority 2015, dated 2020).

Each structure is given as a SMILES string. Where a SMILES comes first, the peptide text is derived from it. [ ]: non-standard residue; d: D form. The star is where a group is joined. ξ: configuration not given here. Ile(3ξ) = CCC(C)[C@H](N)C(=O)O; Chg = N[C@H](C(=O)O)C1CCCCC1; Ac5c = NC1(C(=O)O)CCCC1; Cbz = O=C(OCc1ccccc1)*; CH2F = FC*

One test concerns OCI-LY1. Kind of test: Maximum killing effect on OCI-LY1. It counts as cell-based. On the procedure:
(§1) The maximum killing effects on cell-lines OCI-LY3, TMD8, and OCI-LY1 were also measured for select compounds at inhibitor concentration of 20 μM and 5 μM. TMD8 is another line of ABC type diffuse large-B cell lymphoma, while OCI-LY1 is a DLBCL line of the germinal center B-cell subtype.

The subject of test [1] is OCI-LY3. The experiment in a line: Maximum killing effect on OCI-LY3. The class given is cell-based, human. As to the method:
as §1

Another test has as its system TMD8. Kind of test: Maximum killing effect on TMD8. It counts as cell-based. As to the method:
as §1

Test [2] concerns OCI-LY3. Kind of test: Cell growth inhibition assay (CellTiter-Glo, 96 hours), OCI-LY3. The class given is cell-based, human. To be noted: Homo sapiens, OCI-LY3 cells, treated at t=0 and t=48 hours, ATP luminescence. As to the method: DLBCL cell lines were grown in exponential growth conditions during the 96 hours of treatment. Cells were treated twice: at t=0 and t=48 hours, and cell viability was determined by ATP quantification using a luminescent method ([…]-GLO, Promega, Madison, Wis.). Cell viability in drug-treated cells was normalized to vehicle controls (fractional viability) and results are given as 1-fractional viability.
Experiments were Performed in Triplicate.

A further test addresses MALT1 (Homo sapiens (Human), UniProt Q9UDY8). The experiment in a line: Inhibition constants (Ki) for inhibition of MALT1. It counts as biochemical. To be noted: 100 nM MALT1 used for the assay. On the procedure:
For exemplary compounds of the disclosure, Ki for inhibition of MALT1 was measured (Table E11). A concentration of 100 nM MALT1 was used for the assay.

MALT1, sequence (Q9UDY8 whole entry): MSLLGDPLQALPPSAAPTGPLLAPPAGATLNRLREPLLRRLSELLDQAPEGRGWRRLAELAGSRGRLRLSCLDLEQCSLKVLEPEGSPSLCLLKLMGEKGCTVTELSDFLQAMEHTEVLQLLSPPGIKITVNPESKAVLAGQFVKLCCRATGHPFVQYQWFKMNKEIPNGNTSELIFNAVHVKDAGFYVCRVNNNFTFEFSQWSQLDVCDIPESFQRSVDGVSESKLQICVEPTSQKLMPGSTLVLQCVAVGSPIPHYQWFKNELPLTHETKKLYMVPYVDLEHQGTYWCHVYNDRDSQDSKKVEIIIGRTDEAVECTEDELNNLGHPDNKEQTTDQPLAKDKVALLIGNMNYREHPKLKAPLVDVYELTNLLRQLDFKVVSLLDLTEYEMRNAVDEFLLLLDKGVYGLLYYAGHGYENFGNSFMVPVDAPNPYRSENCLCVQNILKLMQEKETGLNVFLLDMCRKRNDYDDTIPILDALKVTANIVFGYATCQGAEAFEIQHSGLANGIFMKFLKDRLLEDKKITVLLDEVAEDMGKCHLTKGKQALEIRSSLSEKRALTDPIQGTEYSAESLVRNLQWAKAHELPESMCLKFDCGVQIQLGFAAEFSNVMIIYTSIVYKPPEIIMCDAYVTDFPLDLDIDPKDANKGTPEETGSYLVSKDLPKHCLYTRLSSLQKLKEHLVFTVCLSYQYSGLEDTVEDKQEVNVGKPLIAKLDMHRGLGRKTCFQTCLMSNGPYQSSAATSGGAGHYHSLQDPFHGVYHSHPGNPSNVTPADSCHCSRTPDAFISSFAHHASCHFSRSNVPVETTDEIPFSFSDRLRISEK

A word on the GI50: it is the concentration giving 50% growth inhibition. For orientation: Ki means the equilibrium dissociation constant of an inhibitor or competing ligand from its target. The low end stands for higher affinity, the high end for lower affinity. In the case of `N=C(N)NCCC[C@H](NC(=O)[C@@H]1CCCN1C(=O)[C@@H](NC(=O)OCc1ccccc1)C1CCCCC1)C(=O)CF` [Compound 102] (Cbz-[Chg]-Pro-Arg-CH2F), the Maximum killing effect with OCI-LY1 (OCI-LY1, 20 μM) came out at 19%; in the test on OCI-LY3 [1] (OCI-LY3, 20 μM), 85%; in the test with TMD8 (TMD8, 20 μM) it was 54%. The molecule also returned a GI50 with OCI-LY3 [2] of 1450 nM. Also, the Ki on MALT1 was 44 nM.
On the same counts, the results for `CC(C)[C@H](NC(=O)c1ccccc1Br)C(=O)N1CCC[C@H]1C(=O)N[C@@H](CCCNC(=N)N)C(=O)CF` [Compound 114] are 9%, 80%, 40%, 4240 nM and 105 nM.
Regarding `CC(C)[C@H](NC(=O)c1cccc(Br)c1)C(=O)N1CCC[C@H]1C(=O)N[C@@H](CCCNC(=N)N)C(=O)CF` [Compound 115], the Maximum killing effect was 15% with OCI-LY1 (OCI-LY1, 20 μM); 84% in the test with OCI-LY3 [1] (OCI-LY3, 20 μM); 64% with TMD8 (TMD8, 20 μM). Also, growth with OCI-LY3 [2] was halved (GI50) at 530 nM. The affinity at MALT1, expressed as Ki, was 41 nM.
The matching figures for `CC(C)[C@H](NC(=O)C1CCCCC1)C(=O)N1CCC[C@H]1C(=O)N[C@@H](CCCNC(=N)N)C(=O)CF` [Compound 120]: below 0%, 81%, 52%, 940 nM and 56 nM.
`N=C(N)NCCC[C@H](NC(=O)[C@@H]1CCCN1C(=O)[C@@H](NC(=O)c1ccc(Br)cc1)C1CCCCC1)C(=O)CF` [Compound 143]: in the test on OCI-LY3 [2], the GI50 stood at 130 nM. The Ki on MALT1 was 45 nM.
On the same counts, the results for `CC(C)[C@H](NC(=O)c1ccc(Br)cc1)C(=O)N1CCCC[C@H]1C(=O)N[C@@H](CCCNC(=N)N)C(=O)CF` [Compound 144] are 460 nM and 79 nM.
`CC(C)[C@H](NC(=O)c1ccc(OC(F)(F)F)cc1)C(=O)N1CCC[C@H]1C(=O)N[C@@H](CCCNC(=N)N)C(=O)CF` [Compound 145]: in the test on OCI-LY3 [2], the GI50 was determined as 700 nM. In addition, the Ki at MALT1 stood at 27 nM.
On the same counts, the results for `CC(C)[C@H](NC(=O)c1ccc(Cl)c(C#N)c1)C(=O)N1CCC[C@H]1C(=O)N[C@@H](CCCNC(=N)N)C(=O)CF` [Compound 147] are 550 nM and 24 nM.
The matching figures for `CC(C)[C@H](NC(=O)c1cccc(OC(F)(F)F)c1)C(=O)N1CCC[C@H]1C(=O)N[C@@H](CCCNC(=N)N)C(=O)CF` [Compound 148]: 530 nM and 15 nM.
The matching figures for `CC(C)[C@H](NC(=O)c1cccc2ccccc12)C(=O)N1CCC[C@H]1C(=O)N[C@@H](CCCNC(=N)N)C(=O)CF` [Compound 153]: 160 nM and 102 nM.
In the case of `CC(C)[C@H](NC(=O)/C=C/c1ccccc1)C(=O)N1CCC[C@H]1C(=O)N[C@@H](CCCNC(=N)N)C(=O)CF` [Compound 154], in the test on OCI-LY3 [2], the GI50 turned out to be 110 nM. Moreover, the affinity on MALT1, expressed as Ki, was 36 nM.
On the same counts, the results for `CC(C)[C@H](NC(=O)c1ccc2ccccc2n1)C(=O)N1CCC[C@H]1C(=O)N[C@@H](CCCNC(=N)N)C(=O)CF` [Compound 155] are 570 nM and 55 nM.
On the same counts, the results for `CC(C)[C@H](NC(=O)c1cnc2ccccc2c1)C(=O)N1CCC[C@H]1C(=O)N[C@@H](CCCNC(=N)N)C(=O)CF` [Compound 156] are 3880 nM and 40 nM.
In turn, `CC(C)[C@H](NC(=O)c1ccc2cnccc2c1)C(=O)N1CCC[C@H]1C(=O)N[C@@H](CCCNC(=N)N)C(=O)CF` [Compound 157] registered a GI50 with OCI-LY3 [2] of 630 nM. Besides, the affinity at MALT1 corresponds to a Ki of 59 nM.
In the case of `CC(C)[C@H](NC(=O)c1ccc2ccncc2c1)C(=O)N1CCC[C@H]1C(=O)N[C@@H](CCCNC(=N)N)C(=O)CF` [Compound 158], growth with OCI-LY3 [2] was halved (GI50) at 1700 nM. The affinity at MALT1, expressed as Ki, was 110 nM.
On the same counts, the results for `CC(C)[C@H](NC(=O)c1ccnc2ccccc12)C(=O)N1CCC[C@H]1C(=O)N[C@@H](CCCNC(=N)N)C(=O)CF` [Compound 159] are 4220 nM and 139 nM.
`CC(C)[C@H](NC(=O)c1ccc(F)cc1)C(=O)N1CCC[C@H]1C(=O)N[C@@H](CCCNC(=N)N)C(=O)CF` [Compound 160] showed a GI50 in the test with OCI-LY3 [2] of 2340 nM. This molecule also showed a Ki on MALT1 of 13 nM.
The matching figures for `CC(C)[C@H](NC(=O)c1ccc(F)cc1)C(=O)N1CCC[C@H]1C(=O)N[C@H](CCCNC(=N)N)C(=O)CF` [Compound 161]: 910 nM and 346 nM.
Consider `CC(C)[C@H](NC(=O)c1ccc(C(C)(C)C)cc1)C(=O)N1CCC[C@H]1C(=O)N[C@@H](CCCNC(=N)N)C(=O)CF` [Compound 162], for which halving of growth in the test with OCI-LY3 [2] (GI50) required 980 nM. At MALT1, this molecule showed a Ki of 45 nM.
On the same counts, the results for `CC(C)[C@H](NC(=O)Nc1ccc(Cl)cc1)C(=O)N1CCC[C@H]1C(=O)N[C@@H](CCCNC(=N)N)C(=O)CF` [Compound 164] are 780 nM and 62 nM.
On the same counts, the results for `CC(C)[C@H](NC(=O)Nc1cccc(Cl)c1)C(=O)N1CCC[C@H]1C(=O)N[C@@H](CCCNC(=N)N)C(=O)CF` [Compound 165] are 520 nM and 27 nM.
The matching figures for `CC(C)[C@H](NC(=O)c1ccc(Br)cc1)C(=O)N1C[C@H](O)C[C@H]1C(=O)N[C@@H](CCCNC(=N)N)C(=O)CF` [Compound 171]: 70 nM and 50 nM.
With `N=C(N)NCCC[C@H](NC(=O)[C@H](CO)NC(=O)[C@@H](NC(=O)c1ccc(Br)cc1)C1CCCCC1)C(=O)CF` [Compound 173], halving of growth with OCI-LY3 [2] (GI50) required 240 nM. At MALT1, this molecule came in with a Ki of 46 nM.
In the test with OCI-LY3 [2], `CC(C)[C@H](NC(=O)c1ccc(Br)cc1)C(=O)N1COC[C@H]1C(=O)N[C@@H](CCCNC(=N)N)C(=O)CF` [Compound 174] came in with a GI50 of 120 nM. This molecule also gave a Ki at MALT1 of 20 nM.
For `CC(C)[C@H](NC(=O)c1ccc(Br)cc1)C(=O)N1CCOC[C@H]1C(=O)N[C@@H](CCCNC(=N)N)C(=O)CF` [Compound 175], halving of growth with OCI-LY3 [2] (GI50) required 460 nM. On MALT1, the affinity, expressed as Ki, was 70 nM.
On the same counts, the results for `CC(C)[C@H](NC(=O)c1ccc(Br)cc1)C(=O)N1CC[C@H]1C(=O)N[C@@H](CCCNC(=N)N)C(=O)CF` [Compound 176] are 770 nM and 118 nM.
As to `CC(C)[C@H](NC(=O)c1ccc(Br)cc1F)C(=O)N1CCC[C@H]1C(=O)N[C@@H](CCCNC(=N)N)C(=O)CF` [Compound 179], in the test with OCI-LY3 [2], it took 810 nM to inhibit growth by half (GI50). For the same molecule, at MALT1, the Ki worked out at 71 nM.
The matching figures for `CCC(C)[C@H](NC(=O)OCc1ccccc1)C(=O)N1CCC[C@H]1C(=O)N[C@@H](CCCNC(=N)N)C(=O)CF` (stereo partly drawn) [Compound 180] (Cbz-[Ile(3ξ)]-Pro-Arg-CH2F): 2440 nM and 30 nM.
For the molecule `N=C(N)NCCC[C@H](NC(=O)[C@@H]1CCCN1C(=O)C1(NC(=O)OCc2ccccc2)CCCC1)C(=O)CF` [Compound 181] (Cbz-[Ac5c]-Pro-Arg-CH2F), the GI50 in the test with OCI-LY3 [2] was 4310 nM. Moreover, the Ki on MALT1 is 1180 nM.
On the same counts, the results for `N=C(N)NCCC[C@H](NC(=O)[C@@H]1CCCN1C(=O)[C@H](Cc1ccccc1)NC(=O)OCc1ccccc1)C(=O)CF` [Compound 182] are 2300 nM and 76 nM.
On the same counts, the results for `Cc1cc(Br)ccc1C(=O)N[C@H](C(=O)N1CCC[C@H]1C(=O)N[C@@H](CCCNC(=N)N)C(=O)CF)C(C)C` [Compound 183] are 850 nM and 40 nM.
On the same counts, the results for `CC(C)C[C@H](NC(=O)OCc1ccccc1)C(=O)N1CCC[C@H]1C(=O)N[C@@H](CCCNC(=N)N)C(=O)CF` [Compound 184] (Cbz-Leu-Pro-Arg-CH2F) are 5490 nM and 93 nM.
In turn, `CC(C)C[C@H](NC(=O)c1ccc(Br)cc1)C(=O)N1CCC[C@H]1C(=O)N[C@@H](CCCNC(=N)N)C(=O)CF` [Compound 185] registered a GI50 in the test with OCI-LY3 [2] of 1100 nM. Moreover, the affinity on MALT1, expressed as Ki, was 182 nM.
In the test with OCI-LY3 [2], `N=C(N)NCCC[C@H](NC(=O)[C@@H]1CCCN1C(=O)[C@H](Cc1ccc(C(F)(F)F)cc1)NC(=O)c1ccc(Br)cc1)C(=O)CF` [Compound 186] gave a GI50 of 1370 nM. The molecule also had an inhibition constant Ki at MALT1 of 448 nM.
In the case of `CC(C)[C@H](NC(=O)OCc1ccccc1)C(=O)N[C@@H](CCCNC(=N)N)C(=O)N1CCC[C@H]1C(=O)N[C@@H](CCCNC(=N)N)C(=O)CF` [Z-VRPR-fmk, reference compound], the Maximum killing effect is below 0% in the test on OCI-LY1 (OCI-LY1, 5 μM); below 0% with OCI-LY1 (OCI-LY1, 20 μM); 42% in the test with OCI-LY3 [1] (OCI-LY3, 5 μM); 62% with OCI-LY3 [1] (OCI-LY3, 20 μM); 27% in the test on TMD8 (TMD8, 5 μM); 67% in the test with TMD8 (TMD8, 20 μM).
Consider `CN1CCCC(CN2c3ccccc3Sc3ccccc32)C1` (centres unmarked) [mepazine, reference compound], for which the Maximum killing effect is 6% with OCI-LY1 (OCI-LY1, 5 μM); 82% with OCI-LY1 (OCI-LY1, 20 μM); 35% in the test with OCI-LY3 [1] (OCI-LY3, 5 μM); 97% with OCI-LY3 [1] (OCI-LY3, 20 μM); 32% in the test with TMD8 (TMD8, 5 μM); 99% with TMD8 (TMD8, 20 μM).
